What all share (type): cell-based
For test [1], the system named is mixture of periodontal bacteria. As to the kind of experiment: short interval killing test (SIKT), total surviving flora. From the text: (§1) The anti-microbial activity of the mouth rinse evaluated "in vitro" by mortality studies over short intervals of time (short interval killing test, SIKT) against a mixture of periodontal bacteria containing between 1.0*10^5 and 1.0*10^7 CFU ml of each strain. The total counts obtained in the surviving flora and those pertaining to each strain after one minute of contact are summarised in Tables 3 and 4. TABLA 3

Test [2] concerns P. gingivalis. In words: short interval killing test (SIKT), count per strain.
Description: as §1

The subject of test [3] is Peptostreptococcus micros. The description is as above.
Description: as §1

In test [4] the test system is F. nucleatum. Described as above.
Description: as §1

Test [5] has as its system P. intermedia. The test is described as above.
Description: as §1

For test [6], the system named is P.gingivalis. In words: minimum inhibitory concentration (MIC), method of diffusion in agar. From the text:
(§2) The anti-microbial activity of a certain number of active ingredients was obtained by study of the minimum inhibitory concentrations (MIC) of the respective agents (by the method of diffusion in agar) against bacteria representing periodontal disease.

The test system of test [7] is A.actinomycetemcomitans. Described as above.
Description: as §2

In test [8] the test system is P.intermedia. Described as above.
Description: as §2

Setting [9] is: one minute of contact, 1.0*10^5 to 1.0*10^7 CFU ml of each strain, PBS = 100%.
Where [10] appears, read: P. gingivalis, one minute of contact, PBS = 100%.
[11] abbreviates: Peptostreptococcus micros, one minute of contact, PBS = 100%.
The mark [12] stands for this setting: F. nucleatum, one minute of contact, PBS = 100%.
The mark [13] stands for this setting: P. intermedia, one minute of contact, PBS = 100%.

Where two headings read alike, the source gives them in different places.

As for `N=C(NCCCCCCNC(=N)NC(=N)Nc1ccc(Cl)cc1)NC(=N)Nc1ccc(Cl)cc1.O=C(O)[C@H](O)[C@@H](O)[C@H](O)[C@H](O)CO.O=C(O)[C@H](O)[C@@H](O)[C@H](O)[C@H](O)CO` [CHX, 1,6-bis (N^5-p-chlorophenyl-N^1-diguanido)hexane digluconate], in test [1] (setting [9]), the “Total CFU/ml recovered (%) at 1 minute” value stood at 25.55%. Moreover, the “CFU/ml recovered from each strain (%)” value was under 0.81% in test [2] (setting [10]), 82.12% in test [3] (setting [11]), 0.87% in test [4] (setting [12]) and under 0.56% in test [5] (setting [13]).
On to `CCCCCCCCCCCCCCCC[n+]1ccccc1` [CPC, cetylpyridinium chloride], for which, in test [1], the “Total CFU/ml recovered (%) at 1 minute” value worked out at 0.04%. In addition, the “CFU/ml recovered from each strain (%)” value in test [2] is listed as under 0.01%; in test [3], 0.03%; in test [4], 0.05%; in test [5], 0.01%.
For the compound `[H]/N=C(\N/C(=N/[H])NCCCCCCNC(=N)NC(=N)Nc1ccc(Cl)cc1)Nc1ccc(Cl)cc1` [Chlorhexidine], in test [6], the “Minimum inhibitory concentration (%)” value came to 0.002%. Also, the Minimum inhibitory concentration in test [7] is 0.004%. In test [8], the “Minimum inhibitory concentration (MIC, % concentration)” value came out at 0.0009%.
In the case of `O=C([O-])[C@H](O)[C@@H](O)[C@H](O)[C@H](O)CO.O=C([O-])[C@H](O)[C@@H](O)[C@H](O)[C@H](O)CO.[Cu+2]` [Cu^++ gluconate], the “Minimum inhibitory concentration (%)” value in test [6] was 0.06%. In test [8], the “Minimum inhibitory concentration (MIC, % concentration)” value is on record as 0.004%.
As to `CCCCC(CC)CN1CN(CC(CC)CCCC)CC(C)(N)C1` (centres unmarked) [Hexetidine], the “Minimum inhibitory concentration (%)” value in test [6] is recorded as 0.001%. The compound also returned a Minimum inhibitory concentration in test [7] of 0.09%. Besides, in test [8], the “Minimum inhibitory concentration (MIC, % concentration)” value is 0.001%.
In the case of `Oc1cc(Cl)ccc1Oc1ccc(Cl)cc1Cl` [Triclosan, 5-chloro-2-(2,4-dichlorophenoxy)-phenol], in test [6], the “Minimum inhibitory concentration (%)” value is listed as 0.004%. This compound also displayed a Minimum inhibitory concentration in test [7] of 0.0006%. Besides, in test [8], the “Minimum inhibitory concentration (MIC, % concentration)” value is on record as 0.009%.
Take `O=S(=O)([O-])[O-].[Zn+2]` [Zn^++, sulphate]: the “Total CFU/ml recovered (%) at 1 minute” value in test [1] (setting [9]) is listed as 47.65%. The “CFU/ml recovered from each strain (%)” value came to 33.9% in test [2] (setting [10]), 54.5% in test [3] (setting [11]), 40.9% in test [4] (setting [12]) and 0.56% in test [5] (setting [13]). Moreover, the “Minimum inhibitory concentration (%)” value in test [6] came out at 0.5%. Further, in test [7], the Minimum inhibitory concentration was 0.1%. Besides, the “Minimum inhibitory concentration (MIC, % concentration)” value in test [8] is 0.5%.

(Values after patent publication EP0920857B1, “Oral composition for the treatment of halitosis” (DENTAID, S.A., priority 1997, dated 1999).)
